The test system of one test is SB.mhdgc-1. Description: AC50 for growth inhibition (viability) (log10 M); higher = less potent. Conditions: SB.mhdgc-1 (hereditary c.1380delA CDH1 gastric cancer). An outline of the steps:
(§1)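 Values are log half-maximal activity concentrations from four-parameter fits of DMSO-normalised viability, restricted to high-quality curve classes. Patient-derived gastric cancer cells, hereditary or sporadic, were plated at 500 cells per 1536 well in 5 μL medium and given 23 nL compound in DMSO by pintool across 11 threefold dilutions, the top final concentration being 46 μM. Viability was read by ViewLux luminescence after 48 h and a 30 min CellTiter-Glo step at room temperature.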

Another test relates to SB.msgc-1. The description is as above. The following applies: SB.msgc-1 (sporadic gastric cancer). The method in brief:
as §1

Structures can show the parent of a compound that is named as a salt.

Consider `C[C@H]1O[C@H]([C@H](O)[C@@H]1O)N2\C=C(F)/C(=O)NC2=O` [Doxifluridine], for which the “AC50 for growth inhibition (log10 M)” value was -6.18 in the test on SB.mhdgc-1 and -5.33 with SB.msgc-1.
As to `CC(C)C[C@H](NC(=O)[C@H](Cc1ccccc1)NC(=O)c1cnccn1)B(O)O` [Bortezomib], the figures for the “AC50 for growth inhibition (log10 M)” value with SB.mhdgc-1 and in the test on SB.msgc-1 were -7.78 and -7.98, respectively.
As to `CC(C)NCC(O)c1ccc(O)c(O)c1` (centres undefined) [Isoprenaline hydrochloride], the “AC50 for growth inhibition (log10 M)” value in the test with SB.mhdgc-1 is -5.43; with SB.msgc-1, -4.83.
For `COC1=CC(=CC=C1)C2=CC=C(NC(=O)/C3=C(/CCC3)C(O)=O)C(=C2)F` [Vidofludimus] the same measures were -5.33 and -4.88.
As for `C=CC(=O)Nc1cc2c(Nc3ccc(F)c(Cl)c3)ncnc2cc1C#CC(C)(C)N1CCN(C)CC1` [AV-412], the entries for the “AC50 for growth inhibition (log10 M)” value with SB.mhdgc-1 and in the test on SB.msgc-1 were -5.53 and -5.08, respectively.
As to `CC1=CC=CC=C1N2\C(=N/C3=C(C(=CC=C3)C)C2=O)C[N]4C=NC5=C4N=CN=C5N`, the “AC50 for growth inhibition (log10 M)” value in the test on SB.mhdgc-1 was -5.43; with SB.msgc-1, -6.23.
Take `CO[C@H]1/C=C/O[C@@]2(C)Oc3c(C)c(O)c4c(O)c(c(/C=N\N5CCN(C6CCCC6)CC5)c(O)c4c3C2=O)NC(=O)/C(C)=C\C=C\[C@H](C)[C@H](O)[C@@H](C)[C@@H](O)[C@@H](C)[C@H](OC(C)=O)[C@@H]1C` [Rifapentine]: the “AC50 for growth inhibition (log10 M)” value in the test on SB.mhdgc-1 is -7.38; with SB.msgc-1, -6.33.
`CC\1=C(C(\N=C(/N1)C2=CC(=NC=C2)Cl)C3=C(F)C=C(Cl)C=C3)/C(=O)NC4=C(F)C=C5[NH]N=CC5=C4` (centres undefined) [GSK-25]: the “AC50 for growth inhibition (log10 M)” value was -5.08 with SB.mhdgc-1 and -4.63 in the test with SB.msgc-1.
For `CN1CCN(CCOc2cc(OC3CCOCC3)c3c(Nc4c(Cl)ccc5c4OCO5)ncnc3c2)CC1` [Saracatinib] the same measures were -4.63 and -5.88.
On to `CC12CC3CC(C)(C1)CC(N)(C3)C2` [Memantine hydrochloride], for which the “AC50 for growth inhibition (log10 M)” value in the test with SB.mhdgc-1 was -4.73; in the test with SB.msgc-1 it was -4.83.
For `COc1ccc(CCC(=O)c2c(O)cc(O[C@@H]3O[C@H](CO)[C@@H](O)[C@H](O)[C@H]3O[C@@H]3O[C@@H](C)[C@H](O)[C@@H](O)[C@H]3O)cc2O)cc1O` [Neohesperidin dihydrochalcone], in that order: -5.28 and -5.18.
For `COc1cc2ncnc(Nc3ccc(F)c(Cl)c3)c2cc1OCCCN1CCOCC1` [Gefitinib], in that order: -5.57 and -6.67.
On to `CC(C)n1nc(-c2cc3cc(O)ccc3[nH]2)c2c(N)ncnc21` [PP-242], for which the “AC50 for growth inhibition (log10 M)” value is -6.93 in the test on SB.mhdgc-1 and -5.28 in the test with SB.msgc-1.
For `OC[C@H]1O[C@@H]2[C@@H](OC\3=N\C(=N)\C=C/[N@@]23)[C@@H]1O` [Cyclocytidine HCl] the same measures were -6.13 and -5.43.
Regarding `C[C@@H]1C[C@@H]([C@H](O)CC2CC(=O)NC(=O)C2)C(=O)[C@@H](C)C1` [cycloheximide], the “AC50 for growth inhibition (log10 M)” value is -6.73 in the test with SB.mhdgc-1 and -6.53 in the test with SB.msgc-1.
On to `CC[S+](=O)([O-])N1CC(CC#N)(n2cc(-c3ncnc4[nH]ccc34)cn2)C1` [Baricitinib], for which the “AC50 for growth inhibition (log10 M)” value in the test with SB.mhdgc-1 was -4.88; in the test on SB.msgc-1, -4.63.
For `COc1ccc(C[C@@H](C)[C@@H](C)Cc2ccc(OC)c(OC)c2)cc1OC` [Terameprocol], in that order: -5.18 and -5.43.

The values above are taken from the supplement of paper PMC5412046.
